Reference: ChEMBL document CHEMBL1140284, “A three-dimensional pharmacophore model for 5-hydroxytryptamine6 (5-HT6) receptor antagonists” (J Med Chem, 2005)

Biological target: 5-hydroxytryptamine receptor 6 (Homo sapiens, UniProt P50406)
Assay: Binding affinity for human 5-hydroxytryptamine 6 receptor

Sequence of 5-hydroxytryptamine receptor 6 (P50406 whole entry): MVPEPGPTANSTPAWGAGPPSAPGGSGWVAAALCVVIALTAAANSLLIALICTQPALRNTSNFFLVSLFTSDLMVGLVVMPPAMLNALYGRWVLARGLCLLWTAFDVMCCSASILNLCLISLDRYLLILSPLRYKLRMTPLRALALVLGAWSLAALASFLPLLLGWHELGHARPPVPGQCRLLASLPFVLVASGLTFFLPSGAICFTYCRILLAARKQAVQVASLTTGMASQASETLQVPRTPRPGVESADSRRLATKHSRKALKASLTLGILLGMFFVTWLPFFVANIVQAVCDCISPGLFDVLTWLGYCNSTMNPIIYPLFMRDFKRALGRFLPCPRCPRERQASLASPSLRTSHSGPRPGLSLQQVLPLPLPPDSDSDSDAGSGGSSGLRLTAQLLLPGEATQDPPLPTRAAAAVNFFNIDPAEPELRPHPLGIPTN

| Ki [nM] | SMILES |
| --- | --- |
| 631 | Nc1ccc(S(=O)(=O)Nc2cccc(N)c2)cc1 |
| 7.94 | Cc1ccc(S(=O)(=O)n2cc3c4c(cccc42)[C@H](O)[C@@H](N(C)C)C3)cc1 |
| 63.1 | Nc1ccc(S(=O)(=O)Nc2cccc3[nH]ccc23)cc1 |
| 3.16 | NCc1cn(S(=O)(=O)c2ccccc2)c2ccccc12 |
| 50.1 | Nc1ccc(S(=O)(=O)c2cc(Br)nc(Br)c2)cc1 |
| 15.8 | CNc1cc(NS(=O)(=O)c2ccc(N)cc2)cc(NC)n1 |
| 1260 | Nc1ccc(S(=O)(=O)Nc2ccc3cc[nH]c3c2)cc1 |
| 39.8 | COc1cc(N)cc(NS(=O)(=O)c2ccc(N)cc2)c1 |
| 2 | CN(C)CCn1ccc2cc(NS(=O)(=O)c3c(Cl)nc4sccn34)ccc21 |
| 1000 | O=S(=O)(Nc1ccc2c(ccn2CCCN2CCCCC2)c1)c1c(Cl)nc2sccn12 |
| 0.126 | CON1CCN(c2ccc(S(=O)(=O)c3cccc4ccccc34)cc2)CC1 |
| 12.6 | Cc1cn(S(=O)(=O)c2ccc(N)cc2)c2ccccc12 |
| 6.31 | NCc1cn(S(=O)(=O)c2ccc(N)cc2)c2ccccc12 |
| 0.2 | O=S(=O)(c1ccc2ccccc2c1)n1ccc2ccc(N3CCN4C=CCC4C3)cc21 (stereo unspecified) |
| 3.98 | CSc1nc2ccccn2c(=N)c1S(=O)(=O)c1ccccc1 |
| 79.4 | Cc1c(S(=O)(=O)Nc2ccc3ncc(N4CCN(C)CC4)cc3c2)sc2ccc(Cl)cc12 |
| 1.26 | O=S(=O)(c1cccc2ccccc12)n1ccc2ccc(C3=CCN4CCCC4C3)cc21 (stereo unspecified) |
| 50.1 | O=S(=O)(Nc1ccc2ccn(CCN3CCCC3)c2c1)c1c(Cl)nc2sccn12 |
| 31.6 | Nc1ccc(S(=O)(=O)n2c3c(c4ccccc42)CCCC3)cc1 |
| 50.1 | Nc1ccc(S(=O)(=O)Nc2cc(N)nc(Br)c2)cc1 |

| SMILES | Ki [nM] |
| --- | --- |
| CN(C)CCc1cn(S(=O)(=O)c2ccccc2)c2ccccc12 | 3.16 |
| NCCc1c[nH]c2ccc(NS(=O)(=O)c3ccc4c(Cl)cccc4c3)cc12 | 0.2 |
| COc1ccc2[nH]c(-c3ccccc3)c(CCN(C)C)c2c1 | 50.1 |
| O=S(=O)(c1ccccc1)c1cc2c(N3CCNCC3)cccc2[nH]1 | 0.126 |
| CC[N+](C)(CC)CCc1cn(S(=O)(=O)c2ccc(NC(C)=O)cc2)c2ccc(OC)cc12 | 251 |
| COc1cccc2c(CCN)cn(S(=O)(=O)c3ccc4ccccc4c3)c12 | 5.01 |
| COc1ccc2c(c1)c(CCN)cn2S(=O)(=O)c1cccc2ccccc12 | 0.794 |
| COc1ccc(NS(=O)(=O)c2cccc(I)c2)cc1N1CCNCC1 | 0.794 |
| COc1ccc2c(c1)c(CCN(C)C)cn2S(=O)(=O)c1ccccc1 | 2.51 |
| CCOC(=O)c1[nH]c2ccccc2c1CCN | 20 |
| COc1cccc(-c2noc(-c3[nH]c4ccccc4c3CCN)n2)c1 | 1.26 |
